Source: the NIST ThermoML archive (doi:10.1021/je050039p)
± gives the expanded uncertainty stated by the source.

Conditions: Crystal 1; visual observation

SMILES | Normal melting temperature
c1ccccc1 [benzene] | 5.90 ± 0.5 °C
CCCCCCCCCCCCC [tridecane] | -4.14 ± 0.5 °C
